Reference: patent US20120083522A1, “MODULATION OF INFLAMMATORY RESPONSES BY FACTOR XI” (Isis Pharmaceuitcals, inc., priority 2009, published 2012)
In the oligonucleotide strings, read from the 5' end, every base follows the letter of its sugar. An asterisk marks phosphorothioate; unmarked linkages are phosphodiester. Other units and linkages are bracketed, terminal groups are in braces. A string of capitals states the bases alone. e = 2'-O-(2-methoxyethyl) (MOE); [5mC] = 5-methylcytosine; d = 2'-deoxy (DNA)

Columns and labels:
Factor XI protein = test: Cynomolgus monkeys: plasma Factor XI protein ELISA (Example 29); type: in vivo
Procedure, shortened: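 Monkeys received subcutaneous escalating doses (5, 10, then 25 mg/kg, two or three times weekly over 12 weeks) or a lower chronic regimen capped at 10 mg/kg. Plasma was sampled weekly and assayed at 1:50 by sandwich ELISA with o-phenylenediamine read at 490 nm. Values are % reduction versus PBS controls.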

murine Factor XI protein = test: In vivo antisense inhibition of murine Factor XI: plasma protein analysis (Example 10); conditions: BALB/c mice; for % inhibition: Factor XI protein, relative to PBS control
Description: BALB/c mice were injected with 5 mg/kg, 10 mg/kg, 25 mg/kg, or 50 mg/kg of ISIS 404057 or ISIS 404071 twice a week for 3 weeks. A control group of mice was injected with phosphate buffered saline (PBS) twice a week for 3 weeks. Mice were sacrificed 5 days after receiving the last dose. Whole liver was harvested for RNA analysis and plasma was collected for protein analysis.
Results are presented as percent inhibition of Factor XI, relative to PBS control.

[1] = test system: DSS-induced colitis model; test: Colitis Study B: body weight and colon length; type: in vivo, Swiss Webb mice
Description: In a first group of 8 Swiss Webb mice, 20 mg/kg of ISIS 404071 was injected subcutaneously twice a week for 3 weeks. In a second group of 8 Swiss Webb mice, 20 mg/kg of ISIS 404057 was subcutaneously injected twice a week for 3 weeks. In a third control group of 8 Swiss Webb mice, 20 mg/kg of ISISI 421208 was injected subcutaneously twice a week for 3 weeks. Two control groups of 8 mice each were injected with PBS twice a week for 3 weeks. After the oligonucleotide treatment, 4% DSS in water was administered ad libitum for 6 days to all the experimental groups and one PBS control group.
Mice in all groups were weighed at day 0 and daily after administration of DSS. Mice were sacrificed at the end of the study on day 7 after DSS was administered, their livers and colons were harvested for RNA analysis, and their body weights and colon lengths were measured.

[2] = test system: soluble CD40 ligand (CD40L); test: Colitis Study D: CD40L levels; type: in vivo, Swiss Webb mice; conditions: for CD40L levels in colon: DSS-treated mice
Description: In a first group of 8 Swiss Webb mice, 10 mg/kg of ISIS 404071 was injected subcutaneously twice a week for 3 weeks. In a second group of 8 Swiss Webb mice, 20 mg/kg of ISIS 404057 was subcutaneously injected twice a week for 3 weeks. In a third control group of 8 Swiss Webb mice, 40 mg/kg of ISISI 404057 was injected subcutaneously twice a week for 3 weeks. Two control groups of 8 mice each were injected with PBS twice a week for 3 weeks. After the oligonucleotide treatment, 4% DSS in water was administered ad libitum for 7 days to all the experimental groups and one PBS control group.
Plasma levels of soluble CD40 ligand (CD40L) are known to be elevated in cases of inflammatory bowel disease (Ludwiczek, O. et al., Int. J. Colorectal Disease. 2003. 18: 142-147) and may be considered a marker of intestinal inflammation. […]

[3] = DSS-induced colitis, day 7, 20 mg/kg s.c. twice a week for 3 weeks, percent change compared to the PBS control

Substance: ISIS 416850: gapmer of Table 8 (antisense eT*eG*e[5mC]*eA*e[5mC]*dA*dG*dT*dT*dT*d[5mC]*dT*dG*dG*d[5mC]*eA*eG*eG*e[5mC]*e[5mC])
- Factor XI protein levels (in words) (Factor XI protein; Example 29): time-dependent decrease in protein levels
- Inhibition of Factor XI protein relative to the PBS control (Factor XI protein; chronic, lower dose regimen (*) 5 then 10 mg/kg s.c., day 8): 6%
- Inhibition of Factor XI protein relative to the PBS control (Factor XI protein; chronic, lower dose regimen (*) 5 then 10 mg/kg s.c., day 15): 13%
- Inhibition of Factor XI protein relative to the PBS control (Factor XI protein; chronic, lower dose regimen (*) 5 then 10 mg/kg s.c., day 22): 12%
- Inhibition of Factor XI protein relative to the PBS control (Factor XI protein; chronic, lower dose regimen (*) 5 then 10 mg/kg s.c., day 29): 20%
- Inhibition of Factor XI protein relative to the PBS control (Factor XI protein; chronic, lower dose regimen (*) 5 then 10 mg/kg s.c., day 36): 22%
- Inhibition of Factor XI protein relative to the PBS control (Factor XI protein; chronic, lower dose regimen (*) 5 then 10 mg/kg s.c., day 43): 24%
- Inhibition of Factor XI protein relative to the PBS control (Factor XI protein; chronic, lower dose regimen (*) 5 then 10 mg/kg s.c., day 50): 30%
- Inhibition of Factor XI protein relative to the PBS control (Factor XI protein; chronic, lower dose regimen (*) 5 then 10 mg/kg s.c., day 57): 34%
- Inhibition of Factor XI protein relative to the PBS control (Factor XI protein; chronic, lower dose regimen (*) 5 then 10 mg/kg s.c., day 64): 37%
- Inhibition of Factor XI protein relative to the PBS control (Factor XI protein; chronic, lower dose regimen (*) 5 then 10 mg/kg s.c., day 71): 41%
- Inhibition of Factor XI protein relative to the PBS control (Factor XI protein; chronic, lower dose regimen (*) 5 then 10 mg/kg s.c., day 78): 42%
- Inhibition of Factor XI protein relative to the PBS control (Factor XI protein; chronic, lower dose regimen (*) 5 then 10 mg/kg s.c., day 85): 34%
- Inhibition of Factor XI protein relative to the PBS control (Factor XI protein; chronic, lower dose regimen (*) 5 then 10 mg/kg s.c., day −5 (before treatment)): 1%
- Inhibition of Factor XI protein relative to the PBS control (Factor XI protein; chronic, lower dose regimen (*) 5 then 10 mg/kg s.c., day −14 (before treatment)): 0%
- Inhibition of Factor XI protein relative to the PBS control (Factor XI protein; escalating doses 5, 10, 25 mg/kg s.c., day 8): 8%
- Inhibition of Factor XI protein relative to the PBS control (Factor XI protein; escalating doses 5, 10, 25 mg/kg s.c., day 15): 4%
- Inhibition of Factor XI protein relative to the PBS control (Factor XI protein; escalating doses 5, 10, 25 mg/kg s.c., day 22): 11%
- Inhibition of Factor XI protein relative to the PBS control (Factor XI protein; escalating doses 5, 10, 25 mg/kg s.c., day 29): 15%
- Inhibition of Factor XI protein relative to the PBS control (Factor XI protein; escalating doses 5, 10, 25 mg/kg s.c., day 36): 17%
- Inhibition of Factor XI protein relative to the PBS control (Factor XI protein; escalating doses 5, 10, 25 mg/kg s.c., day 43): 23%
- Inhibition of Factor XI protein relative to the PBS control (Factor XI protein; escalating doses 5, 10, 25 mg/kg s.c., day 50): 42%
- Inhibition of Factor XI protein relative to the PBS control (Factor XI protein; escalating doses 5, 10, 25 mg/kg s.c., day 57): 49%
- Inhibition of Factor XI protein relative to the PBS control (Factor XI protein; escalating doses 5, 10, 25 mg/kg s.c., day 64): 55%
- Inhibition of Factor XI protein relative to the PBS control (Factor XI protein; escalating doses 5, 10, 25 mg/kg s.c., day 71): 57%
- Inhibition of Factor XI protein relative to the PBS control (Factor XI protein; escalating doses 5, 10, 25 mg/kg s.c., day 78): 63%
- Inhibition of Factor XI protein relative to the PBS control (Factor XI protein; escalating doses 5, 10, 25 mg/kg s.c., day 85): 64%
- Inhibition of Factor XI protein relative to the PBS control (Factor XI protein; escalating doses 5, 10, 25 mg/kg s.c., day −5 (before treatment)): 0%
- Inhibition of Factor XI protein relative to the PBS control (Factor XI protein; escalating doses 5, 10, 25 mg/kg s.c., day −14 (before treatment)): 0%

Substance: TGGTAATCCACTTTCAGAGG (eT*eG*eG*eT*eA*dA*dT*d[5mC]*d[5mC]*dA*d[5mC]*dT*dT*dT*d[5mC]*eA*eG*eA*eG*eG) [ISIS 404071, 5-10-5 MOE gapmer targeting murine Factor XI, target start site 869]
- Factor XI protein (in words) (murine Factor XI protein; 5-50 mg/kg twice a week for 3 weeks): significant dose-dependent reduction of Factor XI protein
- % inhibition (murine Factor XI protein; 5 mg/kg twice a week for 3 weeks): 39%
- % inhibition (murine Factor XI protein; 10 mg/kg twice a week for 3 weeks): 67%
- % inhibition (murine Factor XI protein; 25 mg/kg twice a week for 3 weeks): 89%
- % inhibition (murine Factor XI protein; 50 mg/kg twice a week for 3 weeks): 96%
- body weight (in words) ([1]; Colitis Study B, FIG. 9): did not have any significant change in body weight
- Body weight [1, 3]: −10%
- Colon length [1, 3]: −11%
- CD40L levels (in words) ([2]; Colitis Study D): decreased
- CD40L levels in colon ([2]; 10 mpk): 0.19 ng/mg protein
- CD40L levels in colon ([2]; 20 mpk): 0.26 ng/mg protein
- CD40L levels in colon ([2]; 40 mpk): 0.39 ng/mg protein
